Data published in patent US4963542A, “Cephalosporin derivatives” (Takeda Chemical Industries, Ltd., priority 1976, dated 1990).

Experiments:
[1] = tested on: Citrobacter freundii GN1706; experiment: Minimal inhibitory concentration, agar serial dilution; type: cell-based; conditions: TSA, inoculum 10^7 /ml
From the text: (§1) (a) Minimal inhibitory concentrations (Table 1 and 2)
(§2) Method: Agar serial dilution

[2] = tested on: Citrobacter freundii GN99; experiment: as above; type: cell-based; conditions: TSA, inoculum 10^7 /ml
From the text: as §1, §2

[3] = tested on: Enterobacter cloacae TN1282; experiment: as above; type: cell-based; conditions: TSA, inoculum 10^7 /ml
From the text: as §1, §2

Escherichia coli 0-111 [4] = experiment: as above; type: cell-based; conditions: TSA, inoculum 10^7 /ml
From the text: as §1, §2

[5] = tested on: Escherichia coli NIHJ JC-2; experiment: as above; type: cell-based; conditions: TSA, inoculum 10^7 /ml
From the text: as §1, §2

Escherichia coli T-7 = experiment: as above; type: cell-based; conditions: TSA, inoculum 10^7 /ml
From the text: as §1, §2

Klebsiella pneumoniae DT = experiment: as above; type: cell-based; conditions: TSA, inoculum 10^7 /ml
From the text: as §1, §2

[6] = tested on: Klebsiella pneumoniae GN-3835; experiment: as above; type: cell-based; conditions: TSA, inoculum 10^7 /ml
From the text: as §1, §2

Proteus mirabilis GN4359 = experiment: as above; type: cell-based; conditions: TSA, inoculum 10^7 /ml
From the text: as §1, §2

Proteus morganii IFO3168 = experiment: as above; type: cell-based; conditions: TSA, inoculum 10^7 /ml
From the text: as §1, §2

Proteus rettgeri GN4733 = experiment: as above; type: cell-based; conditions: TSA, inoculum 10^7 /ml
From the text: as §1, §2

Proteus rettgeri TN338 = experiment: as above; type: cell-based; conditions: TSA, inoculum 10^7 /ml
From the text: as §1, §2

Proteus vulgaris GN4413 = experiment: as above; type: cell-based; conditions: TSA, inoculum 10^7 /ml
From the text: as §1, §2

[7] = tested on: Proteus vulgaris IFO 3988; experiment: as above; type: cell-based; conditions: TSA, inoculum 10^7 /ml
From the text: as §1, §2

[8] = tested on: Serratia marcescens IFO 12648; experiment: as above; type: cell-based; conditions: TSA, inoculum 10^7 /ml
From the text: as §1, §2

Serratia marcescens TN24 = experiment: as above; type: cell-based; conditions: TSA, inoculum 10^7 /ml
From the text: as §1, §2

[9] = tested on: Staphylococcus aureus 1840; experiment: as above; type: cell-based; conditions: TSA, inoculum 10^7 /ml
From the text: as §1, §2

[10] = tested on: Staphylococcus aureus 209P; experiment: as above; type: cell-based; conditions: TSA, inoculum 10^7 /ml
From the text: as §1, §2

Escherichia coli 0-111 [11] = experiment: Therapeutic effects on infected mice; type: in vivo, Male mouse, ICR/SLC; conditions: Escherichia coli, 0111, sc, 168 h, Table 4; s.c. single dose immediately after intraperitoneal infection; 7 days observation
Method: The therapeutic efficacies of several representative compounds [I] of this invention and of cephaloridine on infected mice are also set forth in the tables.
(b) Therapeutic effects on infected mice (Table 3 and Table 4)
Test animal: Male mouse, ICR/SLC
A group of five animals was employed per drug.
Route of infection: Intraperitoneal
Infectious bacteria: Escherichia coli 0-111
Period of observation: 7 days
Method of administration: Test compound (1 mg, 10 mg, 100 mg or 200 mg) was dissolved in sterile saline solution (100 ml) and 0.2 ml of the solution was administered subcutaneously as a single dose immediately after infection. Two fold dilutions of each solution were administered to five groups of 5 mice each.

Structure (SMILES) | Minimal inhibitory concentration (MIC) [1] | Minimal inhibitory concentration (MIC) [2] | Minimal inhibitory concentration (MIC) [3] | Minimal inhibitory concentration (MIC) (Escherichia coli 0-111 [4]) | Minimal inhibitory concentration (MIC) [5] | Minimal inhibitory concentration (MIC) (Escherichia coli T-7) | Minimal inhibitory concentration (MIC) (Klebsiella pneumoniae DT) | Minimal inhibitory concentration (MIC) [6] | Minimal inhibitory concentration (MIC) (Proteus mirabilis GN4359) | Minimal inhibitory concentration (MIC) (Proteus morganii IFO3168) | Minimal inhibitory concentration (MIC) (Proteus rettgeri GN4733) | Minimal inhibitory concentration (MIC) (Proteus rettgeri TN338) | Minimal inhibitory concentration (MIC) (Proteus vulgaris GN4413) | Minimal inhibitory concentration (MIC) [7] | Minimal inhibitory concentration (MIC) [8] | Minimal inhibitory concentration (MIC) (Serratia marcescens TN24) | Minimal inhibitory concentration (MIC) [9] | Minimal inhibitory concentration (MIC) [10] | ED50 (Escherichia coli 0-111 [11])
Cc1nnc(SCC2=C(C(=O)O)N3C(=O)C(NC(=O)/C(=N\O)c4csc(=N)[nH]4)C3SC2)s1 (stereo not drawn) [Example 16, sodium 7-[2-(2-imino-4-thiazolin-4-yl)-2-hydroxyimino-acetamido]-3-(2-methyl-1,3,4-thiadiazol-5-yl)thiomethyl-3-cephem-4-carboxylate (syn-isomer)] | 0.20 | 0.10 | 6.25 | 0.024 | 0.10 | 1.56 | 0.05 | 0.20 | 0.20 | 0.05 | 0.10 | ≤ 0.012 | 6.25 | 0.10 | 3.13 | 0.78 | 0.78 | 0.39 | 0.035 mg/kg
Cc1nsc(SCC2=C(C(=O)O)N3C(=O)C(NC(=O)/C(=N\O)c4csc(=N)[nH]4)C3SC2)n1 (stereo not drawn) [Example 14, sodium 7-[2-(2-imino-4-thiazoline-4-yl)-2-hydroxyimino-acetamido]-3-(3-methyl-1,2,4-thiadiazol-5-yl)thiomethyl-3-cephem-4-carboxylate (syn-isomer)] | 0.78 | 0.39 | 6.25 | 0.20 | 0.39 | – | 0.20 | 0.78 | 0.39 | 0.20 | 0.39 | 0.024 | 1.56 | 0.10 | 6.25 | 0.78 | 0.78 | 0.39 | –
Cc1nnc(SCC2=C(C(=O)[O-])N3C(=O)C(NC(=O)Cn4cnnn4)[C@H]3SC2)s1.[Na+] (some centres unmarked) [Cefazolin, sodium 7-(1H-tetrazol-1-yl)acetamido-3-(2-methyl-1,3,4-thiadiazol-5-yl)thiomethyl-3-cephem-4-carboxylate, reference compound] | > 100 | 12.5 | – | 1.56 | 1.56 | 50 | 1.56 | 6.25 | 6.25 | 100 | 100 | ≤ 0.2 | > 100 | 3.13 | > 100 | > 100 | 1.56 | 0.39 | –
N=c1[nH]c(/C(=N/O)C(=O)NC2C(=O)N3C(C(=O)O)=C(COC(N)=O)CSC23)cs1 (stereo not drawn) [Example 26, sodium 7-[2-(2-imino-4-thiazolin-4-yl)-2-hydroxyimino-acetamido]-3-carbamoyloxymethyl-3-cephem-4-carboxylate (syn-isomer)] | 0.10 | 0.05 | 12.5 | 0.024 | 0.05 | 0.39 | 0.024 | 0.05 | 0.05 | 0.39 | 0.024 | ≤ 0.012 | 50 | 0.10 | 12.5 | 1.56 | 0.78 | 0.78 | –
CC(=O)OCC1=C(C(=O)[O-])N2C(=O)C(NC(=O)Cc3cccs3)[C@H]2SC1.[Na+] (some centres unmarked) [Cephalothin, sodium 7-(2-thienylacetamido)-3-acetoxymethyl-3-cephem-4-carboxylate, reference compound] | > 100 | 25 | > 100 | 3.13 | 12.5 | 100 | 1.56 | 12.5 | 3.13 | > 100 | > 100 | 1.56 | > 100 | 1.56 | > 100 | > 100 | 0.39 | 0.20 | –
N=c1[nH]c(C(=NO)C(=O)NC2C(=O)N3C(C(=O)[O-])=C(C[n+]4ccc(C(N)=O)cc4)CSC23)cs1 (stereo not drawn) [Example 17, 7-[2-(2-imino-4-thiazolin-4-yl)-2-hydroxyimino-acetamido]-3-(4-carbamoylpyridiniummethyl)-3-cephem-4-carboxylate (syn-isomer)] | 0.78 | 0.20 | 12.5 | 0.20 | 0.39 | 25 | 0.20 | 1.56 | 0.39 | 0.39 | 0.20 | 0.05 | 3.13 | 0.39 | 1.56 | 0.78 | 0.39 | 0.39 | –
N=c1[nH]c(/C(=N/O)C(=O)NC2C(=O)N3C(C(=O)O)=C(CSc4cnn[nH]4)CSC23)cs1 (stereo not drawn) [Example 13, sodium 7-[2-(2-imino-4-thiazolin-4-yl)-2-hydroxyimino-acetamido]-3-(1,2,3-triazol-5-yl)thiomethyl-3-cephem-4-carboxylate (syn-isomer)] | 0.78 | 0.39 | 25 | 0.05 | 0.10 | 0.78 | 0.05 | 0.20 | 0.10 | 0.20 | 0.20 | ≤ 0.012 | 50 | 0.10 | 12.5 | 1.56 | 0.78 | 0.78 | –
